Measurements from EP4603105A1, “PHARMACEUTICAL COMPOSITION CONTAINING CYCLIC COMPOUND HAVING SELECTIVE KRAS INHIBITORY EFFECT AGAINST HRAS AND NRAS” (CHUGAI SEIYAKU KABUSHIKI KAISHA, priority 2022, dated 2024).

Columns and labels:
HRAS wild-type protein = HRAS wild-type protein (Homo sapiens, UniProt P01112); test: Binding to HRAS by surface plasmon resonance (SPR), KD and KD ratio to KRAS; conditions: ratio of KD for HRAS wild-type protein to KD for KRAS
Method in brief: (§1)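 Running buffer contained 10 µM GDP and 10 mM MgCl2 to keep RAS in the GDP state, with 4% DMSO at pH 7.4. Compounds were flowed at 100 µL/min in 75 s steps of rising concentration over captured biotin-Avi RAS at 30°C. Sensorgrams were fitted 1:1 for KD.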

[1] = tested on: human lung cancer strain NCI-H441; test: NCI-H441 cell proliferation inhibitory activity (CellTiter-Glo, 4 days); type: cell-based; conditions: NCI-H441 cells, 4 days, read-out: NCl-H441 IC50
Method in brief: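 Step one: dispense the test compound in serial DMSO dilutions. Step three: add the reagent and measure […].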

[2] = molecular target: GDP-bound NRAS wild-type protein (Homo sapiens, UniProt P01111); test: Binding to NRAS by surface plasmon resonance (SPR), KD and KD ratio to KRAS; conditions: ratio of KD for GDP-bound NRAS wild-type protein to KD for KRAS
GDP-bound NRAS wild-type protein, sequence (P01111 whole entry): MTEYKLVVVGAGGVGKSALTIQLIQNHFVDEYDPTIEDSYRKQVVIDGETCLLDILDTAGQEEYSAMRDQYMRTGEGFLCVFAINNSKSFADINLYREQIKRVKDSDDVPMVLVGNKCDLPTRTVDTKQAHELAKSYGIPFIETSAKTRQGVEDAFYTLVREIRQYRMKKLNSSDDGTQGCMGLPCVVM
Method in brief: as §1

[3] = molecular target: GDP-bound KRAS wild-type protein (Homo sapiens, UniProt P01116); test: Binding to KRAS by surface plasmon resonance (SPR), dissociation constant KD; conditions: Single Cycle Kinetics
GDP-bound KRAS wild-type protein, sequence (P01116 1-188 isoform P01116-2): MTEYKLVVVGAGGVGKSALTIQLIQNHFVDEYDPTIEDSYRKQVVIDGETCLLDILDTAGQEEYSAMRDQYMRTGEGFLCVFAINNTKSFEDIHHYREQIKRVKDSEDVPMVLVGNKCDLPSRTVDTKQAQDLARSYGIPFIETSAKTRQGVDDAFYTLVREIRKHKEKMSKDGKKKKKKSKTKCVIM
Method in brief: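 GDP-bound biotin-Avi RAS captured at ~100–300 RU, 30°C, pH 7.4 HBS containing 10 µM GDP, 10 mM MgCl2, 1 mM DTT, 0.01% Tween 20 and 4% DMSO. KD by 1:1 fitting.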

HRAS wild-type protein, sequence (P01112 whole entry): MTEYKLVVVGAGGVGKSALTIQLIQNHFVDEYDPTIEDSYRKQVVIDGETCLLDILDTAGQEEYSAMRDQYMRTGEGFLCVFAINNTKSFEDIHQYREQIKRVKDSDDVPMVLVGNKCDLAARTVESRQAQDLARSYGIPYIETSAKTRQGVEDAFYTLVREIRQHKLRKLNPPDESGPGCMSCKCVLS

SMILES | HRAS /KRAS (HRAS wild-type protein) | IC50 [1] | NRAS /KRAS [2] | Kd [3]
CCC[C@H]1C(=O)N[C@@H]([C@@H](C)CC)C(=O)N(C)CC(=O)N(C)[C@H]2C/C=C\CCN(C2=O)[C@@H](Cc2ccc(C)cc2)C(=O)N(C)CC(=O)N[C@@H](CCc2cc(F)c(C(F)(F)F)c(F)c2)C(=O)N2CC3(CC3)C[C@H]2C(=O)N(C)C2(CCC2)C(=O)N(C)[C@@H]([C@@H](C)CC)C(=O)N(C)[C@H](C(=O)N(C)C)CC(=O)N1C [PP3331] | A (a compound having 10 or more and less than 20 is denoted as A) | 7 nM | A (a compound having 10 or more and less than 20 is denoted as A) | 0.1 nM
C=C(C)C[C@H]1C(=O)N(C)[C@H](C(=O)N(C)C)CC(=O)N(C)[C@@H](CCC)C(=O)N[C@@H]([C@@H](C)CC)C(=O)N(C)CC(=O)N(C)[C@H]2C/C=C\CCN(C2=O)[C@@H](Cc2ccc(C(F)(F)F)cc2)C(=O)N(C)CC(=O)N[C@@H](CCc2ccc(C(F)(F)F)c(OC)c2)C(=O)N2C[C@H](OCC)C[C@H]2C(=O)N(C)C2(CCC2)C(=O)N1C [PP3332] | B (a compound having 3 or more and less than 10 is denoted as B) | 29.3 nM | A (a compound having 10 or more and less than 20 is denoted as A) | 0.86 nM
CCC[C@H]1C(=O)N[C@@H]([C@@H](C)CC)C(=O)N(C)CC(=O)N(C)[C@H]2C/C=C\CCN(C2=O)[C@@H](Cc2ccc(C)cc2)C(=O)N(C)CC(=O)N[C@@H](CCc2cc(F)c(C(F)(F)F)c(F)c2)C(=O)N2CC3(CC3)C[C@H]2C(=O)N(C)C2(CCC2)C(=O)N(C)[C@@H](CC(C)(C)C)C(=O)N(C)[C@H](C(=O)N(C)C)CC(=O)N1C [PP3333] | B (a compound having 3 or more and less than 10 is denoted as B) | 4.5 nM | B (a compound having 3 or more and less than 10 is denoted as B) | 0.019 nM
C=C(C)C[C@H]1C(=O)N(C)[C@H](C(=O)N(C)C)CC(=O)N(C)[C@@H](CCC)C(=O)N[C@@H]([C@@H](C)CC)C(=O)N2CCC[C@H]2C(=O)N(C)[C@H]2C/C=C\CCN(C2=O)[C@@H](Cc2ccc(C(F)(F)F)cc2)C(=O)N(C)CC(=O)N[C@@H](CCc2ccc(C(F)(F)F)c(OC)c2)C(=O)N2C[C@H](OCC)C[C@H]2C(=O)N(C)C2(CCC2)C(=O)N1C [PP3335] | A (a compound having 10 or more and less than 20 is denoted as A) | 90.6 nM | A (a compound having 10 or more and less than 20 is denoted as A) | 2.5 nM
C=CC[C@H]1C(=O)N(C)[C@H](C(=O)N(C)C)CC(=O)N(C)[C@@H](CCC)C(=O)N[C@@H]([C@@H](C)CC)C(=O)N(C)CC(=O)N(C)[C@H]2C/C=C\CCN(C2=O)[C@@H](Cc2ccc(C(F)(F)F)cc2)C(=O)N(C)CC(=O)N[C@@H](CCc2cc(F)c(C(F)(F)F)c(F)c2)C(=O)N2C[C@H](OCC)C[C@H]2C(=O)N(C)C2(CCC2)C(=O)N1C [PP3336] | A (a compound having 10 or more and less than 20 is denoted as A) | 66.1 nM | A (a compound having 10 or more and less than 20 is denoted as A) | 1.5 nM
C=C(C)C[C@H]1C(=O)N(C)[C@H](C(=O)N(C)C)CC(=O)N(C)[C@@H](CCC)C(=O)N[C@@H]([C@@H](C)CC)C(=O)N(C)CC(=O)N(C)[C@H]2C/C=C\CCN(C2=O)[C@@H](Cc2ccc(C(F)(F)F)cc2)C(=O)N(C)CC(=O)N[C@@H](CCc2cc(F)c(C(F)(F)F)c(F)c2)C(=O)N2C[C@H](OCC)C[C@H]2C(=O)N(C)C2(CCC2)C(=O)N1C [PP3337] | A (a compound having 10 or more and less than 20 is denoted as A) | 65.5 nM | A (a compound having 10 or more and less than 20 is denoted as A) | 1.3 nM
C=CC[C@H]1C(=O)N(C)[C@H](C(=O)N(C)C)CC(=O)N(C)[C@@H](CCC)C(=O)N[C@@H]([C@@H](C)CC)C(=O)N2CCC[C@H]2C(=O)N(C)[C@H]2C/C=C\CCN(C2=O)[C@@H](Cc2ccc(C(F)(F)F)cc2)C(=O)N(C)CC(=O)N[C@@H](CCc2cc(F)c(C(F)(F)F)c(F)c2)C(=O)N2C[C@H](OCC)C[C@H]2C(=O)N(C)C2(CCC2)C(=O)N1C [PP3338] | A (a compound having 10 or more and less than 20 is denoted as A) | 104 nM | A (a compound having 10 or more and less than 20 is denoted as A) | 4.6 nM
C=C(C)C[C@H]1C(=O)N(C)[C@H](C(=O)N(C)C)CC(=O)N(C)[C@@H](CCC)C(=O)N[C@@H]([C@@H](C)CC)C(=O)N2CCC[C@H]2C(=O)N(C)[C@H]2C/C=C\CCN(C2=O)[C@@H](Cc2ccc(C(F)(F)F)cc2)C(=O)N(C)CC(=O)N[C@@H](CCc2cc(F)c(C(F)(F)F)c(F)c2)C(=O)N2C[C@H](OCC)C[C@H]2C(=O)N(C)C2(CCC2)C(=O)N1C [PP3339] | A (a compound having 10 or more and less than 20 is denoted as A) | 104 nM | A (a compound having 10 or more and less than 20 is denoted as A) | 3.6 nM
CCC[C@H]1C(=O)N[C@@H](C23CC(C2)C3)C(=O)N(C)CC(=O)N(C)[C@H]2C/C=C\CCN(C2=O)[C@@H](Cc2ccc(C(F)(F)F)cc2)C(=O)N(C)CC(=O)N[C@@H](CCc2ccc(C(F)(F)F)c(OC)c2)C(=O)N2C[C@H](OCC)C[C@H]2C(=O)N(C)C2(CCC2)C(=O)N(C)[C@@H](C2CCCC2)C(=O)N(C)[C@H](C(=O)N(C)C)CC(=O)N1C [PP3341] | A (a compound having 10 or more and less than 20 is denoted as A) | 28.3 nM | A (a compound having 10 or more and less than 20 is denoted as A) | 0.46 nM
CCC[C@H]1C(=O)N[C@@H](C23CC(C2)C3)C(=O)N2CCC[C@H]2C(=O)N(C)[C@H]2C/C=C\CCN(C2=O)[C@@H](Cc2ccc(C)cc2)C(=O)N(C)CC(=O)N[C@@H](CCc2ccc(C(F)(F)F)c(OC)c2)C(=O)N2C[C@H](OCC)C[C@H]2C(=O)N(C)C2(CCC2)C(=O)N(C)[C@@H](C2CCCC2)C(=O)N(C)[C@H](C(=O)N(C)C)CC(=O)N1C [PP3342] | A (a compound having 10 or more and less than 20 is denoted as A) | 22.8 nM | A (a compound having 10 or more and less than 20 is denoted as A) | 1.8 nM
CCC[C@H]1C(=O)N[C@@H](C23CC(C2)C3)C(=O)N2CCC[C@H]2C(=O)N(C)[C@H]2C/C=C\CCN(C2=O)[C@@H](Cc2ccc(C(F)(F)F)cc2)C(=O)N(C)CC(=O)N[C@@H](CCc2ccc(C(F)(F)F)c(OC)c2)C(=O)N2C[C@H](OCC)C[C@H]2C(=O)N(C)C2(CCC2)C(=O)N(C)[C@@H](C2CCCC2)C(=O)N(C)[C@H](C(=O)N(C)C)CC(=O)N1C [PP3343] | A (a compound having 10 or more and less than 20 is denoted as A) | 29.3 nM | A (a compound having 10 or more and less than 20 is denoted as A) | 2.4 nM
C=CC[C@H]1C(=O)N(C)[C@H](C(=O)N(C)C)CC(=O)N(C)[C@@H](CC(C)C)C(=O)N[C@@H]([C@@H](C)CC)C(=O)N(C)CC(=O)N(C)[C@H]2C/C=C\CCN(C2=O)[C@@H](Cc2ccc(C)cc2)C(=O)N(C)CC(=O)N[C@@H](CCc2ccc(C(F)(F)F)c(OC)c2)C(=O)N2C[C@H](OCC)C[C@H]2C(=O)N(C)C2(CCC2)C(=O)N1C [PP3344] | B (a compound having 3 or more and less than 10 is denoted as B) | 54.9 nM | A (a compound having 10 or more and less than 20 is denoted as A) | 1.4 nM
